Test results as given in patent US9771334B2, “Triketone compound and preparation method and use thereof” (SHANDONG CYNDA CHEMICAL CO., LTD., priority 2013, dated 2017).

Legend:
Assay in all cases: Herbicidal activity, pot culture method (primary and secondary screening test)
Assay type in all cases: in vivo
Settings in all cases: primary screening, pot culture, 150 g/ha, sprayed at 3-leaf stage, result 15 days later
setaria viridis = test system: setaria viridis
From the text: (§1) This test example is for describing the herbicidal activity inhibition ratio (%) (the dose is 150 g/ha) of the compound with a structure shown in Formula (I). Primary screening test (pot culture method): The test targets are abutilon theophrasti, digitaria sanguinalis, amaranthus retroflexus, echinochloa crusgalli, eclipta prostrata and setaria viridis. Take flowerpots with an inner diameter of 6 cm, put composite soil (vegetable garden soil:seedling matrix=1:2, v/v) into them till 3⁄4 of flowerpot height, directly sow the above six weed targets (budding rate>85%), cover them with 0.2 cm thick soil, and keep them for future use when the weeds grow to 3-leaf stage. Each compound is dissolved in N,N-dimethylformamide at a dose of 150 g/ha and diluted with distilled water into a 0.2 g/L solution. The solution is sprayed through an automatic spray tower. After the solution on weed leaves is aired dry, the flowerpots are moved into a greenhouse for cultivation. The result is investigated 15 days later. By the same method adopted in primary screening test, a secondary screening test is done on some typical compounds, such as: 5, 6, 20, 21, 23, 34, 47, 65, 66, 70 and 91 at a reduced dose, and the test result is compared with mesotrione which is commercially available and has a good herbicidal effect. The test method is same as that adopted in primary screening test. Mesotrione is bought from Hubei […] Chemical Co., Ltd.

abutilon theophrasti = test system: abutilon theophrasti
From the text: as §1

amaranthus retroflexus = test system: amaranthus retroflexus
From the text: as §1

eclipta prostrata = test system: eclipta prostrata
From the text: as §1

echinochloa crusgalli = test system: echinochloa crusgalli
From the text: as §1

digitaria sanguinalis = test system: digitaria sanguinalis
From the text: as §1

Structure (SMILES): Cn1c(=O)n(-c2ccc(Cl)cc2)c(=O)c2cc(C(=O)C3=C(O)CCCC3=O)ccc21 [Compound 1, 3-(4-chlorphenyl)-6-[(2-hydroxy-6-oxo-1-cyclohexenyl)carbonyl]-1-methylquinazoline-2,4(1H,3H)-dione]
- herbicidal activity inhibition ratio (%), Setaria viridis (setaria viridis): 100%
- herbicidal activity inhibition ratio (%), Abutilon theophrasti (abutilon theophrasti): 90%
- herbicidal activity inhibition ratio (%), Amaranthus retroflexus (amaranthus retroflexus): 90%
- herbicidal activity inhibition ratio (%), Eclipta prostrata (eclipta prostrata): 85%
- herbicidal activity inhibition ratio (%), Echinochloa crusgalli (echinochloa crusgalli): 90%
- herbicidal activity inhibition ratio (%), Digitaria sanguinalis (digitaria sanguinalis): 90%

Structure (SMILES): Cn1c(=O)n(-c2ccc(Cl)cc2)c(=O)c2cc(C(=O)C3=C(O)CC(C)(C)CC3=O)ccc21 [Compound 2]
- herbicidal activity inhibition ratio (%), Setaria viridis (setaria viridis): 80%
- herbicidal activity inhibition ratio (%), Abutilon theophrasti (abutilon theophrasti): 100%
- herbicidal activity inhibition ratio (%), Amaranthus retroflexus (amaranthus retroflexus): 95%
- herbicidal activity inhibition ratio (%), Eclipta prostrata (eclipta prostrata): 75%
- herbicidal activity inhibition ratio (%), Echinochloa crusgalli (echinochloa crusgalli): 80%
- herbicidal activity inhibition ratio (%), Digitaria sanguinalis (digitaria sanguinalis): 90%

Structure (SMILES): Cn1c(=O)n(-c2cccc(Cl)c2)c(=O)c2cc(C(=O)C3=C(O)CCCC3=O)ccc21 [Compound 3]
- herbicidal activity inhibition ratio (%), Setaria viridis (setaria viridis): 100%
- herbicidal activity inhibition ratio (%), Abutilon theophrasti (abutilon theophrasti): 80%
- herbicidal activity inhibition ratio (%), Amaranthus retroflexus (amaranthus retroflexus): 100%
- herbicidal activity inhibition ratio (%), Eclipta prostrata (eclipta prostrata): 80%
- herbicidal activity inhibition ratio (%), Echinochloa crusgalli (echinochloa crusgalli): 80%
- herbicidal activity inhibition ratio (%), Digitaria sanguinalis (digitaria sanguinalis): 70%

Structure (SMILES): Cn1c(=O)n(-c2cccc(Cl)c2)c(=O)c2cc(C(=O)C3=C(O)CC(C)(C)CC3=O)ccc21 [Compound 4]
- herbicidal activity inhibition ratio (%), Setaria viridis (setaria viridis): 90%
- herbicidal activity inhibition ratio (%), Abutilon theophrasti (abutilon theophrasti): 100%
- herbicidal activity inhibition ratio (%), Amaranthus retroflexus (amaranthus retroflexus): 100%
- herbicidal activity inhibition ratio (%), Eclipta prostrata (eclipta prostrata): 90%
- herbicidal activity inhibition ratio (%), Echinochloa crusgalli (echinochloa crusgalli): 85%
- herbicidal activity inhibition ratio (%), Digitaria sanguinalis (digitaria sanguinalis): 100%

Structure (SMILES): Cn1c(=O)n(-c2cc(Cl)cc(Cl)c2)c(=O)c2cc(C(=O)C3=C(O)CCCC3=O)ccc21 [Compound 7]
- herbicidal activity inhibition ratio (%), Setaria viridis (setaria viridis): 80%
- herbicidal activity inhibition ratio (%), Abutilon theophrasti (abutilon theophrasti): 100%
- herbicidal activity inhibition ratio (%), Amaranthus retroflexus (amaranthus retroflexus): 90%
- herbicidal activity inhibition ratio (%), Eclipta prostrata (eclipta prostrata): 60%
- herbicidal activity inhibition ratio (%), Echinochloa crusgalli (echinochloa crusgalli): 80%
- herbicidal activity inhibition ratio (%), Digitaria sanguinalis (digitaria sanguinalis): 70%

Structure (SMILES): Cn1c(=O)n(-c2cc(Cl)cc(Cl)c2)c(=O)c2cc(C(=O)C3=C(O)CC(C)(C)CC3=O)ccc21 [Compound 8]
- herbicidal activity inhibition ratio (%), Setaria viridis (setaria viridis): 85%
- herbicidal activity inhibition ratio (%), Abutilon theophrasti (abutilon theophrasti): 0%
- herbicidal activity inhibition ratio (%), Amaranthus retroflexus (amaranthus retroflexus): 100%
- herbicidal activity inhibition ratio (%), Eclipta prostrata (eclipta prostrata): 80%
- herbicidal activity inhibition ratio (%), Echinochloa crusgalli (echinochloa crusgalli): 75%
- herbicidal activity inhibition ratio (%), Digitaria sanguinalis (digitaria sanguinalis): 90%

Structure (SMILES): Cn1c(=O)n(-c2ccc(F)cc2)c(=O)c2cc(C(=O)C3=C(O)CCCC3=O)ccc21 [Compound 9]
- herbicidal activity inhibition ratio (%), Setaria viridis (setaria viridis): 100%
- herbicidal activity inhibition ratio (%), Abutilon theophrasti (abutilon theophrasti): 100%
- herbicidal activity inhibition ratio (%), Amaranthus retroflexus (amaranthus retroflexus): 100%
- herbicidal activity inhibition ratio (%), Eclipta prostrata (eclipta prostrata): 95%
- herbicidal activity inhibition ratio (%), Echinochloa crusgalli (echinochloa crusgalli): 85%
- herbicidal activity inhibition ratio (%), Digitaria sanguinalis (digitaria sanguinalis): 75%

Structure (SMILES): Cn1c(=O)n(-c2cccc(F)c2)c(=O)c2cc(C(=O)C3=C(O)CCCC3=O)ccc21 [Compound 10]
- herbicidal activity inhibition ratio (%), Setaria viridis (setaria viridis): 80%
- herbicidal activity inhibition ratio (%), Abutilon theophrasti (abutilon theophrasti): 100%
- herbicidal activity inhibition ratio (%), Amaranthus retroflexus (amaranthus retroflexus): 85%
- herbicidal activity inhibition ratio (%), Eclipta prostrata (eclipta prostrata): 80%
- herbicidal activity inhibition ratio (%), Echinochloa crusgalli (echinochloa crusgalli): 85%
- herbicidal activity inhibition ratio (%), Digitaria sanguinalis (digitaria sanguinalis): 75%

Structure (SMILES): Cn1c(=O)n(-c2cccc(F)c2)c(=O)c2cc(C(=O)C3=C(O)CC(C)(C)CC3=O)ccc21 [Compound 11]
- herbicidal activity inhibition ratio (%), Setaria viridis (setaria viridis): 80%
- herbicidal activity inhibition ratio (%), Abutilon theophrasti (abutilon theophrasti): 85%
- herbicidal activity inhibition ratio (%), Amaranthus retroflexus (amaranthus retroflexus): 85%
- herbicidal activity inhibition ratio (%), Eclipta prostrata (eclipta prostrata): 85%
- herbicidal activity inhibition ratio (%), Echinochloa crusgalli (echinochloa crusgalli): 85%
- herbicidal activity inhibition ratio (%), Digitaria sanguinalis (digitaria sanguinalis): 95%

Structure (SMILES): Cn1c(=O)n(-c2ccccc2F)c(=O)c2cc(C(=O)C3=C(O)CCCC3=O)ccc21 [Compound 12]
- herbicidal activity inhibition ratio (%), Setaria viridis (setaria viridis): 100%
- herbicidal activity inhibition ratio (%), Abutilon theophrasti (abutilon theophrasti): 85%
- herbicidal activity inhibition ratio (%), Amaranthus retroflexus (amaranthus retroflexus): 80%
- herbicidal activity inhibition ratio (%), Eclipta prostrata (eclipta prostrata): 80%
- herbicidal activity inhibition ratio (%), Echinochloa crusgalli (echinochloa crusgalli): 80%
- herbicidal activity inhibition ratio (%), Digitaria sanguinalis (digitaria sanguinalis): 80%

Structure (SMILES): Cn1c(=O)n(-c2ccccc2F)c(=O)c2cc(C(=O)C3=C(O)CC(C)(C)CC3=O)ccc21 [Compound 13]
- herbicidal activity inhibition ratio (%), Setaria viridis (setaria viridis): 100%
- herbicidal activity inhibition ratio (%), Abutilon theophrasti (abutilon theophrasti): 100%
- herbicidal activity inhibition ratio (%), Amaranthus retroflexus (amaranthus retroflexus): 100%
- herbicidal activity inhibition ratio (%), Eclipta prostrata (eclipta prostrata): 90%
- herbicidal activity inhibition ratio (%), Echinochloa crusgalli (echinochloa crusgalli): 90%
- herbicidal activity inhibition ratio (%), Digitaria sanguinalis (digitaria sanguinalis): 90%

Structure (SMILES): Cc1ccc(-n2c(=O)c3cc(C(=O)C4=C(O)CCCC4=O)ccc3n(C)c2=O)cc1 [Compound 14]
- herbicidal activity inhibition ratio (%), Setaria viridis (setaria viridis): 75%
- herbicidal activity inhibition ratio (%), Abutilon theophrasti (abutilon theophrasti): 75%
- herbicidal activity inhibition ratio (%), Amaranthus retroflexus (amaranthus retroflexus): 100%
- herbicidal activity inhibition ratio (%), Eclipta prostrata (eclipta prostrata): 75%
- herbicidal activity inhibition ratio (%), Echinochloa crusgalli (echinochloa crusgalli): 75%
- herbicidal activity inhibition ratio (%), Digitaria sanguinalis (digitaria sanguinalis): 75%

Structure (SMILES): Cc1ccc(-n2c(=O)c3cc(C(=O)C4=C(O)CC(C)(C)CC4=O)ccc3n(C)c2=O)cc1 [Compound 15]
- herbicidal activity inhibition ratio (%), Setaria viridis (setaria viridis): 75%
- herbicidal activity inhibition ratio (%), Abutilon theophrasti (abutilon theophrasti): 60%
- herbicidal activity inhibition ratio (%), Amaranthus retroflexus (amaranthus retroflexus): 70%
- herbicidal activity inhibition ratio (%), Eclipta prostrata (eclipta prostrata): 60%
- herbicidal activity inhibition ratio (%), Echinochloa crusgalli (echinochloa crusgalli): 70%
- herbicidal activity inhibition ratio (%), Digitaria sanguinalis (digitaria sanguinalis): 75%

Structure (SMILES): Cc1ccc(-n2c(=O)c3cc(C(=O)C4=C(O)CC(C)CC4=O)ccc3n(C)c2=O)cc1 (stereo not drawn) [Compound 16]
- herbicidal activity inhibition ratio (%), Setaria viridis (setaria viridis): 100%
- herbicidal activity inhibition ratio (%), Abutilon theophrasti (abutilon theophrasti): 70%
- herbicidal activity inhibition ratio (%), Amaranthus retroflexus (amaranthus retroflexus): 70%
- herbicidal activity inhibition ratio (%), Eclipta prostrata (eclipta prostrata): 75%
- herbicidal activity inhibition ratio (%), Echinochloa crusgalli (echinochloa crusgalli): 85%
- herbicidal activity inhibition ratio (%), Digitaria sanguinalis (digitaria sanguinalis): 100%

Structure (SMILES): Cc1cccc(-n2c(=O)c3cc(C(=O)C4=C(O)CCCC4=O)ccc3n(C)c2=O)c1 [Compound 17]
- herbicidal activity inhibition ratio (%), Setaria viridis (setaria viridis): 100%
- herbicidal activity inhibition ratio (%), Abutilon theophrasti (abutilon theophrasti): 70%
- herbicidal activity inhibition ratio (%), Amaranthus retroflexus (amaranthus retroflexus): 100%
- herbicidal activity inhibition ratio (%), Eclipta prostrata (eclipta prostrata): 95%
- herbicidal activity inhibition ratio (%), Echinochloa crusgalli (echinochloa crusgalli): 70%
- herbicidal activity inhibition ratio (%), Digitaria sanguinalis (digitaria sanguinalis): 75%

Structure (SMILES): Cc1cccc(-n2c(=O)c3cc(C(=O)C4=C(O)CC(C)(C)CC4=O)ccc3n(C)c2=O)c1 [Compound 18]
- herbicidal activity inhibition ratio (%), Setaria viridis (setaria viridis): 85%
- herbicidal activity inhibition ratio (%), Abutilon theophrasti (abutilon theophrasti): 75%
- herbicidal activity inhibition ratio (%), Amaranthus retroflexus (amaranthus retroflexus): 100%
- herbicidal activity inhibition ratio (%), Eclipta prostrata (eclipta prostrata): 75%
- herbicidal activity inhibition ratio (%), Echinochloa crusgalli (echinochloa crusgalli): 70%
- herbicidal activity inhibition ratio (%), Digitaria sanguinalis (digitaria sanguinalis): 90%

Structure (SMILES): Cc1cccc(-n2c(=O)c3cc(C(=O)C4=C(O)CC(C)CC4=O)ccc3n(C)c2=O)c1 (stereo not drawn) [Compound 19]
- herbicidal activity inhibition ratio (%), Setaria viridis (setaria viridis): 100%
- herbicidal activity inhibition ratio (%), Abutilon theophrasti (abutilon theophrasti): 75%
- herbicidal activity inhibition ratio (%), Amaranthus retroflexus (amaranthus retroflexus): 100%
- herbicidal activity inhibition ratio (%), Eclipta prostrata (eclipta prostrata): 85%
- herbicidal activity inhibition ratio (%), Echinochloa crusgalli (echinochloa crusgalli): 70%
- herbicidal activity inhibition ratio (%), Digitaria sanguinalis (digitaria sanguinalis): 85%
